Measured values reported in patent US11008332B2, “Pharmaceutical composition for preventing or treating aging-related diseases containing decursin derivative as active ingredient” (PRG S&TECH INC., priority 2017, dated 2021).
“And” between values parts separate entries of the source, which are not always exact repeats. Equal values may be shown once.

Tests used:
[1] = test system: Plasma protein; assay: Plasma protein binding, human; assay type: in vitro ADME
Protocol: In vitro ADME studies (plasma protein binding, CYP inhibition, microsomal stability, plasma stability and hERG inhibition) were performed by New drug development center though standard protocols.

[2] = test system: Lmna^G609G/G609G, progeria model mouse; settings: intraperitoneal injection (i.p.), previous report; cited from earlier work
[3] = Chemical pharmacokinetic (PK) analysis, blood/plasma concentration by LC-MS/MS; assay type: in vivo; settings: for Plasma concentration, Mean: n = 3
Protocol: For PK analysis, 5 mg/kg of JH4 in 10% DMSO, 5% Tween […] solution was intravenously injected and 10 mg/kg of JH4 in 10% NMP and 90% PEG400 solution was per orally delivered. At the setting time-points, blood concentration of JH4 was determined by LC-MS/MS analysis and the PK analysis for other chemicals was also tested by the similar protocol.

[4] = test system: Lmna^wt/G609G mice; assay: Life span and morphology of Lmna^wt/G609G mice; assay type: in vivo, mouse
[5] = test system: HGPS cells; settings: previous report; cited from earlier work
[6] = Water solubility; assay type: physicochemical
[7] = molecular target: hERG ion channel (Homo sapiens, UniProt Q12809); assay: hERG inhibition (in vitro ADME); settings: in vitro ADME analysis, FIG. 2B
hERG ion channel, sequence (Q12809 whole entry): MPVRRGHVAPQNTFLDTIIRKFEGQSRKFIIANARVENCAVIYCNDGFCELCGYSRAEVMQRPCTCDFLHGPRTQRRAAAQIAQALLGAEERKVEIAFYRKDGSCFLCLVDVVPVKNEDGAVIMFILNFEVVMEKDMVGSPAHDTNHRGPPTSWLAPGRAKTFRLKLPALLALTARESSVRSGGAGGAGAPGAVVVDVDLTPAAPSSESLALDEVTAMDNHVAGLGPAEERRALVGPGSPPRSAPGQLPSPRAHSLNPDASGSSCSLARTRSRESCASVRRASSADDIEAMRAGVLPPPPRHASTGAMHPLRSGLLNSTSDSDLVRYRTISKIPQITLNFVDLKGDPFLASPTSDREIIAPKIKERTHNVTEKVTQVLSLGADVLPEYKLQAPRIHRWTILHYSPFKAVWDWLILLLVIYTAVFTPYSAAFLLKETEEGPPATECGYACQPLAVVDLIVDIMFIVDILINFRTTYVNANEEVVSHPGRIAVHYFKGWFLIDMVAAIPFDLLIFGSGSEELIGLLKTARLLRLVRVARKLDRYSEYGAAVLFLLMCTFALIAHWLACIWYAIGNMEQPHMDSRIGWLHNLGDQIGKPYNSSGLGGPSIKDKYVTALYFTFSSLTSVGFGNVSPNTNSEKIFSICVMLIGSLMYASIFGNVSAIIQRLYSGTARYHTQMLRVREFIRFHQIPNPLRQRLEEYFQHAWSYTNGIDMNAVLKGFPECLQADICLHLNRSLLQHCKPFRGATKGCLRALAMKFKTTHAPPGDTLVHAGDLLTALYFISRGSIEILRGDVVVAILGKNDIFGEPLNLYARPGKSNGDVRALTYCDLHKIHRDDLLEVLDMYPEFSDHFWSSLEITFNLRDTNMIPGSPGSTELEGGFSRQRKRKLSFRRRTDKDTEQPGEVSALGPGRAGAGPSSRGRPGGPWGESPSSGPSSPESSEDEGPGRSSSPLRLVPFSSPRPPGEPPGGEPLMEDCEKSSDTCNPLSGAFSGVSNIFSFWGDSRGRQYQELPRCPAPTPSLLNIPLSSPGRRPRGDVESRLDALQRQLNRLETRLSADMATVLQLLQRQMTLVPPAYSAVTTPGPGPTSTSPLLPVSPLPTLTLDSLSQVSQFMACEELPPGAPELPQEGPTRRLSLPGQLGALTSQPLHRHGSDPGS

[8] = test system: progerin expression in progerin-transfected 293 cells; assay: Progerin expression analysis in progerin-transfected 293 cells (Western blot); assay type: cell-based; settings: 24 hours, FIG. 1D
Protocol: HEK293 cell line, obtained from ATCC, were maintained in liquid medium (DMEM) containing 10% FBS and 1% antibiotics at 37° C.
Whole-cell lysates were prepared in RIPA.
15 μg of cell extracts were separated by SDS-PAGE and transferred onto a PVDF membrane.
The membrane was incubated for 1 h to overnight at 4° C. with primary antibody, followed by reaction with a secondary antibody at room temperature for 1 h.
Peroxidase activity was detected by chemiluminescence with ECL kit (Intron, Seoul, Korea) as recommended by its manufacturer.

[9] = test system: HGPS cells; assay: Immunofluorescence staining of HGPS cells (nuclear morphology, progerin, H3K9me3); assay type: cell-based, Human
Protocol: Human fibroblast cells from HGPS patients (AG03198, person; AG03199; person), WS patients (AG06300, person; AG03141, person; AG00780, person) and controls (GM 00038, person) were obtained from the Coriell Cell Repositories (Camden, N.J., USA) and were maintained in EMEM, containing 15% FBS, 2 mM glutamine or HEMEM with 26 mM HEPES without antibiotics.
Cells were seeded on a cover glass and transfected with the indicated vectors.
After fixing with 100% methanol or 1% paraformaldehyde (PFA) for 1 h at 4° C., cells were incubated with blocking buffer (PBS+anti-human-Ab; 1:400) for 1 h.
After washing with PBS twice, cells were incubated with anti-Lamin A/C, Progerin or H3K9Me3 in blocking buffer (1:200) overnight and sequentially with anti-goat Ab-FITC or anti-rabbit Ab-rhodamin in blocking buffer (1:500) for 7 h and mounted, and nucleus was stained with DAPI. Thereafter Immunofluorescence signal was detected by fluorescence microscopy (Zeiss and Logos).
For counting nuclear deformed cell, obtained immunofluorescence images were used. Nuclear membrane showing abnormalities, dependent on Lamin A staining, were counted from randomly selected field. Counted cells were calculated percentage.

[10] = molecular target: T1, progerin (Homo sapiens, UniProt P02545); assay: GST pull-down of bead-conjugated GST WRN-R1/WRN-R2 with GFP-progerin transfected 293 cell lysates; assay type: binding; settings: compared with WRN-R1, FIG. 4B
T1 construct: expressed in transfected cells; host or cells: HEK293
T1 sequence (P02545 1-614 isoform P02545-6): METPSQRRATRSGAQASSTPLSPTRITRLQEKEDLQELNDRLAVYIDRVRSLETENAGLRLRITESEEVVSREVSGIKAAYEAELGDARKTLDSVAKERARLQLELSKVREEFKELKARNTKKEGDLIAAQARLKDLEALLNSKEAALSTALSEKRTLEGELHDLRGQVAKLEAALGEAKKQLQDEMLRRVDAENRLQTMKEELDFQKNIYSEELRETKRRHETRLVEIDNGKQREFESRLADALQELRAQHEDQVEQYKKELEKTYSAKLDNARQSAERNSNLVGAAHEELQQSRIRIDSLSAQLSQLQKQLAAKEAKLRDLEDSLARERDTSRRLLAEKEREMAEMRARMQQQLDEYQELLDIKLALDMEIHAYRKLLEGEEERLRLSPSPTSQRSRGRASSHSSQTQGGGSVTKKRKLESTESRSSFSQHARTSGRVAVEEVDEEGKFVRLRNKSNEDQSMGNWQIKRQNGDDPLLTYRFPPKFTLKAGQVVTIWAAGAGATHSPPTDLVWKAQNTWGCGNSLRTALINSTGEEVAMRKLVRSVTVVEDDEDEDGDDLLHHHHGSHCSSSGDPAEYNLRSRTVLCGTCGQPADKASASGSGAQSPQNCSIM
Protocol: For the analysis of protein-protein interaction, Glutathione S-transferase (GST) pull-down assay was performed.
To detect the interaction, GST-bead-fused Lamin A-C-terminal region, Progerin-C-terminal region, WRN-R1 region or WRN-R2 region was incubated with GFP tagged Progerin (GFP-Progerin) and Lamin A (GFP-Lamin A) transfected HEK293 cell lysate for 30 min at RT.
After washing once with PBS, precipitated materials were collected and subjected into SDS-PAGE and western blot with anti-GFP and GST.

[11] = molecular target: T2, progerin and Lamin A binding (Homo sapiens, UniProt P02545); assay: Competition assay of WRN-R1 and R2 against progerin and Lamin A binding; settings: bead conjugated GST-progerin with GFP-Lamin A transfected 293 lysate, FIG. 4C
T2 construct: produced by cloning of 100 AA from upstream of the termination codon through PCR; made in house; GFP-Lamin A from transfected 293 cells
T2 sequence (P02545 1-614 isoform P02545-6): T1 sequence (P02545 1-614 isoform P02545-6)
Protocol: For the competition assay of WRN-R1 and R2 against progerin and Lamin A binding, bead-conjugated GST-progerin was incubated with GFP-Lamin A overexpressed 293 lysate with or without WRN-R1 or R2 recombinant protein.

[12] = intravenous injection 5 mg/kg, 1 hr
[13] = intravenous injection 5 mg/kg, 2 hr
[14] = intravenous injection 5 mg/kg, 8 hr
[15] = intravenous injection 5 mg/kg, 24 hr
[16] = oral administration 10 mg/kg, 0.08 hr
[17] = oral administration 10 mg/kg, 0.25 hr
[18] = oral administration 10 mg/kg, 0.5 hr
[19] = oral administration 10 mg/kg, 1 hr
[20] = oral administration 10 mg/kg, 2 hr
[21] = oral administration 10 mg/kg, 4 hr
[22] = oral administration 10 mg/kg, 8 hr
[23] = oral administration 10 mg/kg, 24 hr
[24] = Lmna^wt/G609G mice, injection started from 43 weeks old, FIG. 2E
[25] = recombinant peptide delivered into HGPS cells with protein delivery agent, 24 hr, FIG. 4D

C[C@@H]1C[C@H]2[C@@H]3CCC4=CC(=O)C=C[C@]4(C)[C@@]3(F)[C@@H](O)C[C@]2(C)[C@@]1(O)C(=O)CO [Dexamethasone]
Plasma protein binding Human (% Bound) [1]: 62.1 % Bound

CC1(C)Oc2cc3oc(=O)ccc3cc2C[C@@H]1OC(=O)/C=C/c1cccnc1 [JH4]
prolongation of progerin model mouse lifespan [2]: about 4 weeks | disappearance after PO treatment ([3]; PO treatment, FIG. 1A): very rapidly disappeared by PO treatment | Plasma concentration, Mean ([3]; intravenous injection 5 mg/kg, 0.08 hr): 4.7 ng/mL | Plasma concentration, individual subjects ([3]; intravenous injection 5 mg/kg, 0.08 hr, 5 mg/kg): 3.3 ng/mL and 4.6 ng/mL and 6.3 ng/mL | Plasma concentration, Mean ([3]; intravenous injection 5 mg/kg, 0.25 hr): 1.5 ng/mL | Plasma concentration, individual subjects ([3]; intravenous injection 5 mg/kg, 0.25 hr, 5 mg/kg): 1.7 ng/mL and 1.1 ng/mL and 1.8 ng/mL | Plasma concentration, Mean ([3]; intravenous injection 5 mg/kg, 0.5 hr): 0.6 ng/mL | Plasma concentration, individual subjects ([3]; intravenous injection 5 mg/kg, 0.5 hr, 5 mg/kg): 0.5 ng/ml (2×) and 0.7 ng/ml | Plasma concentration, individual subjects [3, 12]: BQL (Below Quantifiable Limit (<1 ng/ml)) | Plasma concentration, Mean [3, 12]: BQL (Below Quantifiable Limit (<1 ng/ml)) | Plasma concentration, individual subjects [3, 13]: BQL (Below Quantifiable Limit (<1 ng/ml)) | Plasma concentration, Mean [3, 13]: BQL (Below Quantifiable Limit (<1 ng/ml)) | Plasma concentration, Mean ([3]; intravenous injection 5 mg/kg, 4 hr): BQL (Below Quantifiable Limit (<1 ng/ml)) | Plasma concentration, individual subjects ([3]; intravenous injection 5 mg/kg, 4 hr, 5 mg/kg): BQL (Below Quantifiable Limit (<1 ng/ml)) (2×) and BOL | Plasma concentration, individual subjects [3, 14]: BQL (Below Quantifiable Limit (<1 ng/ml)) | Plasma concentration, Mean [3, 14]: BQL (Below Quantifiable Limit (<1 ng/ml)) | Plasma concentration, individual subjects [3, 15]: BQL (Below Quantifiable Limit (<1 ng/ml)) | Plasma concentration, Mean [3, 15]: BQL (Below Quantifiable Limit (<1 ng/ml)) | half-life in vivo ([3]; intravenously injected and orally administrated): very short half-life | Plasma concentration, individual subjects [3, 16]: BQL (Below Quantifiable Limit (<1 ng/ml)) | Plasma concentration, Mean [3, 16]: BQL (Below Quantifiable Limit (<1 ng/ml)) | Plasma concentration, individual subjects [3, 17]: BQL (Below Quantifiable Limit (<1 ng/ml)) | Plasma concentration, Mean [3, 17]: BQL (Below Quantifiable Limit (<1 ng/ml)) | Plasma concentration, individual subjects [3, 18]: BQL (Below Quantifiable Limit (<1 ng/ml)) | Plasma concentration, Mean [3, 18]: BQL (Below Quantifiable Limit (<1 ng/ml)) | Plasma concentration, individual subjects [3, 19]: BQL (Below Quantifiable Limit (<1 ng/ml)) | Plasma concentration, Mean [3, 19]: BQL (Below Quantifiable Limit (<1 ng/ml)) | Plasma concentration, individual subjects [3, 20]: BQL (Below Quantifiable Limit (<1 ng/ml)) | Plasma concentration, Mean [3, 20]: BQL (Below Quantifiable Limit (<1 ng/ml)) | Plasma concentration, individual subjects [3, 21]: BQL (Below Quantifiable Limit (<1 ng/ml)) | Plasma concentration, Mean [3, 21]: BQL (Below Quantifiable Limit (<1 ng/ml)) | Plasma concentration, individual subjects [3, 22]: BQL (Below Quantifiable Limit (<1 ng/ml)) | Plasma concentration, Mean [3, 22]: BQL (Below Quantifiable Limit (<1 ng/ml)) | Plasma concentration, individual subjects [3, 23]: BQL (Below Quantifiable Limit (<1 ng/ml)) | Plasma concentration, Mean [3, 23]: BQL (Below Quantifiable Limit (<1 ng/ml)) | prolongation of life ([4]; Lamn^wt/G609G model): about 10 weeks | average life span [4, 24]: 54 weeks | maximum (max) life span [4, 24]: 56 weeks | aging-related markers in HGPS cells [5]: restored aging-related markers such as p16/INK4A, DNA-PK and H3K9me3 expression | nuclear deformation of HGPS cells [5]: improved the nuclear deformation of HGPS cells | water solubility [6]: very low water solubility

CC1(C)Oc2cc3oc(=O)ccc3cc2CC1OC(=O)N/C=C/c1cccnc1 (stereo not shown) [JH010]
bioavailability (B.A.) ([3]; PK analysis, FIG. 2A): 70% | PK profile ([3]; in vivo PK analysis, FIG. 2A): proper PK profile | hERG ion channel inhibition [7]: hERG ion channel inhibition of the JH010 compound was confirmed | progerin expression [8]: inhibiting progerin expression | nuclear abnormality of HGPS cells ([9]; HGPS cells incubated 48 hr, FIG. 1E): improved nuclear abnormality of HGPS cells | H3K9me3 expression in HGPS cells ([9]; immunostaining, FIG. 1F): induced H3K9me3 expression

WRN-R2: recombinant WRN-R2 region (hWRN 424-476), duplicated peptide HLSPNDNENDTSYVIESDEDELEMEMLK x2
binding to progerin [10]: strongly binds to progerin | blocking of interaction of progerin and Lamin A [11]: blocks the interaction of progerin and Lamin A | H3K9me3 expression in HGPS cells [9, 25]: H3K9me3 expression was improved | nuclear morphology of HGPS cells [9, 25]: nuclear morphology was normalized
